Structures can show the parent of a compound that is named as a salt. Where two headings read alike, the source gives them in different places.
Tests used:
[1] = test system: substance P-induced scratching behavior; assay: Inhibitory effect on substance P-induced scratching behavior in mice (MicroAct automatic detection); format: in vivo, mouse; conditions: for Number of scratching behavior (means ± standard error): counted for 15 minutes
Description: Substance P-induced scratching behavior in mice which is an intractable pruritus model was induced by the method described in a known document (Togashi et al., European Journal of Pharmacology, 2002, Vol. 435, p. 259 and the like). Further, evaluation of the scratching behavior was objectively carried out by automatic detection using MicroAct (NeuroScience, Inc.) based on the method described in a known document (Hashimoto et al., Allergology International, 2004, Vol. 53, p. 349).
More particularly, at least five days before the evaluation of drug effect, neodymium magnets (diameter: 1 mm, length: 3 mm) coated with Parafilm were subcutaneously inserted into the insteps of both hind limbs of 5 to 7 week-old male ICR mouse (Japan SLC, Inc.) under isoflurane anesthesia. One or two days before the day of the evaluation of drug effect, the hair of the rostral part of the back of the mouse was shaved with a hair clipper under isoflurane anesthesia. At least one hour before the start of the measurement of the number of scratching behavior, each mouse (6 to 8 weeks old) was individually placed in a chamber for measurement (diameter: 11 cm, height: 18 cm) for acclimation. After the acclimation, substance P (5 mmol/L) or phosphate-buffered saline (hereinafter referred to as PBS) as a solvent thereof was intradermally administered (0.05 mL/site) into the rostral part of the back, and the measurement of the number of scratching behavior was started immediately after the administration. The number of scratching behavior was recorded by amplifying electric current induced by the movement of the magnets inserted in the hind limbs in a round coil surrounding the chamber for measurement. The measurement was carried out under unattended environment, and the evaluation of the drug effect was carried out by using the number of scratching behavior occurred for 15 minutes after the start of the measurement as an index.
A test compound or a solvent thereof was administered in an amount of 10 mL/kg 30 to 60 minutes before the start of the measurement of the number of scratching behavior. Varenicline tartrate (Tocris Bioscience) was dissolved in PBS and intraperitoneally administered in a dose of 1, 3 or 10 mg/kg 60 minutes before the start of the measurement of the number of scratching behavior. N-(1-azabicyclo[2.2.2]oct-3(R)-yl)-4-chlorobenzamide hydrochloride (PNU-282987) hydrate (Sigma-Aldrich) was dissolved in PBS and intraperitoneally administered in a dose of 0.3 or 1 mg/kg 45 minutes before the start of the measurement of the number of scratching behavior. The compound of Reference Example 1 was dissolved in PBS and intraperitoneally administered in a dose of 0.1 or 0.3 mg/kg 30 minutes before the start of the measurement of the number of scratching behavior. The compound of Reference Example 2 was dissolved in PBS and intraperitoneally administered in a dose of 1, 3, or 10 mg/kg 45 minutes before the start of the measurement of the number of scratching behavior. The compound of Reference Example 3 was dissolved in distilled water and orally administered in a dose of 1, 3, or 10 mg/kg 30 minutes before the start of the measurement of the number of scratching behavior. The compound of Reference Example 4 was dissolved in PBS and intraperitoneally administered in a dose of 1, 3, or 10 mg/kg 45 minutes before the start of the measurement of the number of scratching behavior. The compound of Reference Example 5 was dissolved in PBS and intraperitoneally administered in a dose of 1, 3, or 10 mg/kg 30 minutes before the start of the measurement of the number of scratching behavior. The compound of Reference Example 6 was dissolved in PBS and intraperitoneally administered in a dose of 1, 3, or 10 mg/kg, 30 minutes before the start of the measurement of the number of scratching behavior. […]

[2] = test system: substance P-induced scratching behavior; conditions: literature; cited from earlier work
[3] = p.o., 10 mg/kg, substance P 250 nmol/site
[4] = Mus musculus, ip, 0.1 mg/kg, substance P 250 nmol/site, read-out: Inhibition rate
[5] = Mus musculus, ip, 0.3 mg/kg, substance P 250 nmol/site, read-out: Inhibition rate
[6] = i.p., 0.1 mg/kg, substance P 250 nmol/site
[7] = i.p., 0.3 mg/kg, substance P 250 nmol/site
[8] = Mus musculus, ip, 1 mg/kg, substance P 250 nmol/site, read-out: Inhibition rate
[9] = Mus musculus, ip, 3 mg/kg, substance P 250 nmol/site, read-out: Inhibition rate
[10] = Mus musculus, ip, 10 mg/kg, substance P 250 nmol/site, read-out: Inhibition rate
[11] = i.p., 1 mg/kg, substance P 250 nmol/site
[12] = i.p., 3 mg/kg, substance P 250 nmol/site
[13] = i.p., 10 mg/kg, substance P 250 nmol/site
[14] = Mus musculus, ip, read-out: Inhibition rate
[15] = Mus musculus, po, read-out: Inhibition rate

## Cl.O=C(N[C@H]1CN2CCC1CC2)c1cc2cccc(Cl)c2s1 [Reference Example 3, (R)-7-Chloro-N-(quinuclidin-3-yl)benzo[b]thiophene-2-carboxamide hydrochloride]
[1]; Mus musculus, po, 1 mg/kg, substance P 250 nmol/site, read-out: Inhibition rate
  inhibition at 1 mg/kg: 32%
[1]; Mus musculus, po, 3 mg/kg, substance P 250 nmol/site, read-out: Inhibition rate
  inhibition at 3 mg/kg: 51%
[1]; Mus musculus, po, 10 mg/kg, substance P 250 nmol/site, read-out: Inhibition rate
  inhibition at 10 mg/kg: 79%
[1]; p.o., 1 mg/kg, substance P 250 nmol/site
  Number of scratching behavior (means ± standard error): 71 ± 14
[1]; p.o., 3 mg/kg, substance P 250 nmol/site
  Number of scratching behavior (means ± standard error): 57 ± 13
[1]; [3]
  Number of scratching behavior (means ± standard error): 36 ± 8

## O=C(O)Cc1ccccc1Nc1c(Cl)cccc1Cl [diclofenac]
[2]
  Inhibition of substance P-induced scratching behavior in mice (in words): not inhibited

## Cl.Clc1ccc(OC[C@H]2CCN2)cn1 [Reference Example 1, (R)-2-Chloro-5-(2-azetidinylmethoxy)pyridine hydrochloride]
[1]; [4]
  inhibition at 0.1 mg/kg: 107%
[1]; [5]
  inhibition at 0.3 mg/kg: 121%
[1]; [6]
  Number of scratching behavior (means ± standard error): 21 ± 8
[1]; [7]
  Number of scratching behavior (means ± standard error): 6 ± 2

## O=C(N[C@@H]1C2CCN(CC2)[C@H]1Cc1cccnc1)c1cc2ccccc2o1 [Reference Example 2, N-(2(S)-(Pyridin-3-ylmethyl)-1-azabicyclo[2.2.2]oct-3(R)-yl)-1-benzofuran-2-carboxamide]
[1]; [8]
  inhibition at 1 mg/kg: 71%
[1]; [9]
  inhibition at 3 mg/kg: 38%
[1]; [10]
  inhibition at 10 mg/kg: 62%
[1]; [11]
  Number of scratching behavior (means ± standard error): 67 ± 10
[1]; [12]
  Number of scratching behavior (means ± standard error): 97 ± 14
[1]; [13]
  Number of scratching behavior (means ± standard error): 75 ± 8

## O=C(N[C@H]1CN2CCC1CC2)c1cc2ccoc2cn1 [Reference Example 9, N-(1-Azabicyclo[2.2.2]oct-3(R)-yl)furo[2,3-c]pyridine-5-carboxamide dihydrochloride]
[1]; [4]
  inhibition at 0.1 mg/kg: 10%
[1]; [5]
  inhibition at 0.3 mg/kg: 43%
[1]; [8]
  inhibition at 1 mg/kg: 70%
[1]; [6]
  Number of scratching behavior (means ± standard error): 109 ± 21
[1]; [7]
  Number of scratching behavior (means ± standard error): 76 ± 18
[1]; [11]
  Number of scratching behavior (means ± standard error): 50 ± 10

## C=CC[C@@H]1/C=C(\C)C[C@H](C)C[C@H](OC)[C@H]2O[C@@](O)(C(=O)C(=O)N3CCCC[C@H]3C(=O)O[C@H](/C(C)=C/[C@@H]3CC[C@@H](O)[C@H](OC)C3)[C@H](C)[C@@H](O)CC1=O)[C@H](C)C[C@@H]2OC [tacrolimus]
[2]
  Inhibition of substance P-induced scratching behavior in mice (in words): not inhibited

## Cl.O=C(N[C@H]1CN2CCC1CC2)c1ccc(Cl)cc1 [PNU-282987 hydrate, N-(1-azabicyclo[2.2.2]oct-3(R)-yl)-4-chlorobenzamide hydrochloride, reference compound]
[1]; [14]
  inhibition at 0.3 mg/kg: 42%
  inhibition at 1 mg/kg: 72%
[1]; [7]
  Number of scratching behavior (means ± standard error): 81 ± 9
[1]; [11]
  Number of scratching behavior (means ± standard error): 48 ± 8

## CN1C[C@@H]2CN(c3ccc(-c4ccccc4)nn3)C[C@@H]2C1 [Reference Example 7, cis-2-methyl-5-(6-phenylpyridazin-3-yl)perhydropyrrolo[3,4-c]pyrrole fumarate]
[1]; [14]
  inhibition at 0.3 mg/kg: 25%
  inhibition at 1 mg/kg: 79%
  inhibition at 3 mg/kg: 66%
[1]; [7]
  Number of scratching behavior (means ± standard error): 101 ± 20
[1]; [11]
  Number of scratching behavior (means ± standard error): 37 ± 8
[1]; [12]
  Number of scratching behavior (means ± standard error): 52 ± 9

## Cl.O=C(Oc1ccc(Br)cc1)N1CCN2CCC1CC2 [Reference Example 4, 1,4-Diazabicyclo[3.2.2]nonane-4-carboxylic acid 4-bromophenyl ester hydrochloride]
[1]; [14]
  inhibition at 1 mg/kg: 32%
  inhibition at 3 mg/kg: 63%
  inhibition at 10 mg/kg: 80%
[1]; [11]
  Number of scratching behavior (means ± standard error): 89 ± 12
[1]; [12]
  Number of scratching behavior (means ± standard error): 59 ± 14
[1]; [13]
  Number of scratching behavior (means ± standard error): 42 ± 6

## COc1ccc2c(c1)c(CC(=O)O)c(C)n2C(=O)c1ccc(Cl)cc1 [indomethacin]
[2]
  Inhibition of substance P-induced scratching behavior in mice (in words): not inhibited

## C[C@H](OC(=O)N[C@@H]1CN2CCC1CC2)c1ccccc1F [Reference Example 8, (S)-1-(2-fluorophenyl)ethyl(S)-quinuclidin-3-ylcarbamate]
[1]; [15]
  inhibition at 10 mg/kg: 41%
  inhibition at 30 mg/kg: 49%
[1]; [3]
  Number of scratching behavior (means ± standard error): 92 ± 17
[1]; p.o., 30 mg/kg, substance P 250 nmol/site
  Number of scratching behavior (means ± standard error): 83 ± 19

## Cc1ccc2oc(N3CCN4CCC3CC4)nc2n1.Cl [Reference Example 5, 2-(1,4-Diazabicyclo[3.2.2]non-4-yl)-5-methyloxazolo[4,5-b]pyridine hydrochloride]
[1]; [8]
  inhibition at 1 mg/kg: 25%
[1]; [9]
  inhibition at 3 mg/kg: 46%
[1]; [10]
  inhibition at 10 mg/kg: 59%
[1]; [11]
  Number of scratching behavior (means ± standard error): 82 ± 6
[1]; [12]
  Number of scratching behavior (means ± standard error): 62 ± 11
[1]; [13]
  Number of scratching behavior (means ± standard error): 50 ± 12

## Cl.O=C(N[C@H]1CN2CCC1CC2)c1ccc2c(c1)OCCO2 [Reference Example 10, N-(1-Azabicyclo[2.2.2]oct-3(R)-yl)-2,3-dihydro-1,4-benzodioxin-6-carboxamide hydrochloride]
[1]; [14]
  inhibition at 0.1 mg/kg: 3%
  inhibition at 0.3 mg/kg: 17%
  inhibition at 1 mg/kg: 58%
[1]; [6]
  Number of scratching behavior (means ± standard error): 131 ± 18
[1]; [7]
  Number of scratching behavior (means ± standard error): 115 ± 19
[1]; [11]
  Number of scratching behavior (means ± standard error): 69 ± 10

## Cl.O=C(CCCCN1CCOCC1)Nc1ccc(-c2cccnc2)cc1 [Reference Example 6, 5-(4-Morpholinyl)-N-(4-(3-pyridyl)phenyl)pentanamide hydrochloride]
[1]; [8]
  inhibition at 1 mg/kg: 32%
[1]; [9]
  inhibition at 3 mg/kg: 52%
[1]; [10]
  inhibition at 10 mg/kg: 104%
[1]; [11]
  Number of scratching behavior (means ± standard error): 94 ± 15
[1]; [12]
  Number of scratching behavior (means ± standard error): 78 ± 10
[1]; [13]
  Number of scratching behavior (means ± standard error): 36 ± 5
